Measurements taken from ChEMBL document CHEMBL1124186, “Synthesis and evaluation of tylosin-related macrolides modified at the aldehyde function: a new series of orally effective antibiotics” (1988).
Converted amounts (≈) assume the structure as drawn.

Key:
Streptococcus pyogenes [1] = assay: In vivo effective dose against experimental infections in rodent caused by Streptococcus pyogenes C203 when administered sc; type: functional
Streptococcus pyogenes [2] = assay: In vitro antimicrobial activity against Streptococcus pyogenes C203; type: functional
Haemophilus influenzae = assay: In vitro antimicrobial activity against Haemophilus influenzae.; type: functional
Enterococcus faecium = assay: In vitro antimicrobial activity against Streptococcus faecium X66; type: functional, streptococcus fae-cium
Staphylococcus aureus = assay: In vitro antimicrobial activity against Staphylococcus aureus X1; type: functional
[3] = test system: Staphylococcus epidermidis; assay: In vitro antimicrobial activity against Staphylococcus epidermidis EPI1; type: functional
Streptococcus pyogenes [4] = assay: In vivo effective dose against experimental infections in rodent caused by Streptococcus pyogenes C203 when administered orally; type: functional; settings: po
Streptococcus pneumoniae = assay: In vitro antimicrobial activity against Streptococcus pneumoniae; type: functional

| SMILES | ED50 (Streptococcus pyogenes [1]) [mg/kg] | MIC (Streptococcus pyogenes [2]) [mg/L] | MIC (Haemophilus influenzae) [mg/L] | MIC (Enterococcus faecium) [mg/L] | MIC (Staphylococcus aureus) [mg/L] | MIC [3] [mg/L] | ED50 (Streptococcus pyogenes [4]) [mg/kg] | MIC (Streptococcus pneumoniae) [mg/L] |
| --- | --- | --- | --- | --- | --- | --- | --- | --- |
| CCOC(C[C@H]1C[C@@H](C)C(=O)/C=C/C(C)=C/[C@H](CO[C@@H]2O[C@H](C)[C@@H](O)[C@@H](OC)[C@H]2OC)[C@@H](CC)OC(=O)C[C@@H](O)[C@H](C)[C@H]1O[C@@H]1O[C@H](C)[C@@H](O)[C@H](N(C)C)[C@H]1O)OCC | 3.4 | 0.5 (≈ 0.591 µM) | 16 (≈ 18.9 µM) | 8 (≈ 9.46 µM) | 0.5 (≈ 0.591 µM) | 1 (≈ 1.18 µM) | 35 | 4 (≈ 4.73 µM) |
| CC[C@H]1OC(=O)C[C@@H](O)[C@H](C)[C@@H](O[C@@H]2O[C@H](C)[C@@H](O)[C@H](N(C)C)[C@H]2O)[C@@H](CCOS(=O)(=O)c2ccc(C)cc2)C[C@@H](C)C(=O)/C=C/C(C)=C/[C@@H]1CO[C@@H]1O[C@H](C)[C@@H](O)[C@@H](OC)[C@H]1OC | 3.1 | 1 (≈ 1.08 µM) | 32 (≈ 34.5 µM) | 8 (≈ 8.62 µM) | 0.5 (≈ 0.539 µM) | 0.5 (≈ 0.539 µM) | 5 | 1 (≈ 1.08 µM) |
| CC[C@H]1OC(=O)C[C@@H](O)[C@H](C)[C@@H](O[C@@H]2O[C@H](C)[C@@H](O[C@H]3C[C@@](C)(O)[C@@H](O)[C@H](C)O3)[C@H](N(C)C)[C@H]2O)[C@@H](CCN2CCCCCCC2)C[C@@H](C)C(=O)/C=C/C(C)=C/[C@@H]1CO[C@@H]1O[C@H](C)[C@@H](O)[C@@H](OC)[C@H]1OC | > 10 | 2 (≈ 1.97 µM) | 128 (≈ 126 µM) | > 128 | 4 (≈ 3.95 µM) | 4 (≈ 3.95 µM) | 44 | 8 (≈ 7.89 µM) |
| CC[C@H]1OC(=O)C[C@@H](O)[C@H](C)[C@@H](O[C@@H]2O[C@H](C)[C@@H](O)[C@H](N(C)C)[C@H]2O)[C@@H](CCNCCc2ccccc2)C[C@@H](C)C(=O)/C=C/C(C)=C/[C@@H]1CO[C@@H]1O[C@H](C)[C@@H](O)[C@@H](OC)[C@H]1OC | > 1.6 | 0.25 (≈ 0.285 µM) | 8 (≈ 9.12 µM) | 8 (≈ 9.12 µM) | 0.5 (≈ 0.57 µM) | 0.5 (≈ 0.57 µM) | 55 | 1 (≈ 1.14 µM) |
| CC[C@H]1OC(=O)C[C@@H](O)[C@H](C)[C@@H](O[C@@H]2O[C@H](C)[C@@H](O)[C@H](N(C)C)[C@H]2O)[C@@H](CCOc2ncnc3ccccc23)C[C@@H](C)C(=O)/C=C/C(C)=C/[C@@H]1CO[C@@H]1O[C@H](C)[C@@H](O)[C@@H](OC)[C@H]1OC | 5.4 | 0.5 (≈ 0.554 µM) | 16 (≈ 17.7 µM) | 4 (≈ 4.43 µM) | 0.25 (≈ 0.277 µM) | 0.25 (≈ 0.277 µM) | > 50 | 0.5 (≈ 0.554 µM) |
| CC[C@H]1OC(=O)C[C@@H](O)[C@H](C)[C@@H](O[C@@H]2O[C@H](C)[C@@H](O)[C@H](N(C)C)[C@H]2O)[C@@H](CCN)C[C@@H](C)C(=O)/C=C/C(C)=C/[C@@H]1CO[C@@H]1O[C@H](C)[C@@H](O)[C@@H](OC)[C@H]1OC | > 10 | 32 (≈ 41.4 µM) | 128 (≈ 166 µM) | 128 (≈ 166 µM) | 4 (≈ 5.17 µM) | 8 (≈ 10.3 µM) | > 100 | 32 (≈ 41.4 µM) |
